The record followed here is patent US20050124624A1, “4-(4-methylpiperazin-1-ylmethyl)-n-[4-methyl-3-(4-pyridin-3-yl)pyrimidin-2-yl-amino)phenyl]-benzamide for threating ang ii-mediated diseases” (priority 2002, published 2005).

Assay [1] concerns mesenteric vessels. In words: Histomorphometry of mesenteric vessels (media wall:lumen ratio, trichrome ECM) in angiotensin II-infused rats. The class given is in vivo, Sprague Dawley rats. The protocol: (§1) Rats were randomized to receive minipumps filled vehicle (0.15 M NaCl, 1 mmol/l acetic acid) either with or without angiotensin II (58 ng/min), as previously described (Cao Z et col. Kidney Int 58:2437-2451, 2000).
Histochemistry and immunohistochemistry: Histological studies of vascular architecture were performed in a subset of animals (n=8/group). Animals in this subgroup were anesthetized with pentobarbital sodium (Nembutal, Bomac Laboratories, Asquith, Australia) and vessels were perfused at arterial pressure with 10% neutral buffered formalin via an intra-aortic cannula. Tissues were then prepared as previously described (Cooper M E et col.; Diabetes 43:1221-1228,1994). In brief, mesenteric vessels were placed in ice cold phosphate buffer where fat, connective tissue and veins were removed by blunt dissection. The resultant vessel preparation was then embedded in paraffin. Sections were then either histochemically or immunohistochemically stained. […]
Quantification of histopathology: The proportion of vessel wall occupied by the media was identified by immunolabelling for α-smooth muscle actinand the ratio of the wall:lumen quantified using of a video-imaging system (Video Pro 32, Leading Edge, Bedford Park, South Australia, Australia), connected to a light microscope (Zeiss, Oberkocken, Germany) with photographic attachment (Axiophot, Zeiss, Oberkocken, Germany). Using this device, the media (areas stained with the anti-actin antibody) and corresponding lumenal areas were determined in a median of 20 (range 10-35) vessels per animal and expressed as wall:lumen ratio, as previously described in other models of vascular hypertrophy (Kakinuma Yet col.; Kidney Int 42:46-55., 1992).
Quantification of ECM was performed on trichrome-stained sections by calculating the proportion of area occupied by ECM using computer-assisted image analysis as previously described (Lehr H A, et col. J Histochem Cytochem 45:1559-1565, 1997). […]

For assay [2], the system named is Transforming growth factor-β1 (TGF-β1). In words: Quantitative real-time RT-PCR of mesenteric vessel TGF-β1 gene expression. The class given is in vivo, Sprague Dawley rats. The note with it: mesenteric vessel mRNA, compared with untreated counterparts also subjected to angiotensin II-infusion. The protocol: as §1
(§2) RNA Extraction and cDNA synthesis Frozen mesenteric vascular tissue, stored at −80° C. was homogenized (Ultra-Turrax, Janke and Kunkel, Staufen, Germany) and total RNA was isolated by the acid guanidinium thiocyanate-phenol-chloroform extraction method (Chomczynski P, Sacchi N; Anal Biochem 162:156-159,1987). The purified RNA was dissolved in sterile water, quantified spectrophotometrically and its concentration adjusted to 1 μg/μl. […]
(§3) Quantitative Real Time RT-PCR: Transforming growth factor-β1 (TGF-β1) and platelet-derived growth factor (PDGF) gene expression was quantified by real-time RT-PCR using sequence specific primers as previously reported by our group (Ahola H, et col.; American Journal of Pathology 155:907-913,1999). […] Both probes included a fluorescence reporter (6-carboxyfluorescein [FAM]) at the 5′-end and a fluorescent quencher (6-carboxytetramethylrhodamine [TAMRA]) at the 3′-end. For the relative quantification of the target gene and the endogenous reference 18S ribosomal RNA (18S), real-time quantitative RT-PCR was performed using an GeneAmp 5700 Sequence Detector (PE Biosystems, Foster City, Calif.) according to the manufacturer's instructions. […]
(In qPCR the cycle at which signal appears reflects the starting amount.)

Assay [3] relates to platelet-derived growth factor (PDGF). In words: Quantitative real-time RT-PCR of mesenteric vessel PDGF gene expression. As to conditions: mesenteric vessel mRNA, angiotensin II infused animals. Type of assay: in vivo, Sprague Dawley rats. The protocol: as §1, §2, §3
Assay [4] has as its system angiotensin II-infused rats. In words: Angiotensin II infusion in rats: systolic blood pressure and mesenteric vessel weight. As to conditions: 60 mg/kg daily gavage, 12 days.
[5] abbreviates: trichrome stained sections, 60 mg/kg daily.

`Cc1ccc(NC(=O)c2ccc(CN3CCN(C)CC3)cc2)cc1Nc1nccc(-c2cccnc2)n1` [Imatinib, N-{5-[4-(4-methyl-piperazino-methyl)-benzoylamido]-2-methylphenyl}-4-(3-pyridyl)-2-pyrimidine-amine]: the “media wall:lumen ratio” value in assay [1] (60 mg/kg daily gavage, 12 days, p<0.001) amounted to 0.4. For the same compound, in assay [1] (setting [5]), the “extent of ECM expansion” value is “significantly reduced” and the media hypertrophy result was “significantly reduced”. Further, the TGF-β expression entry in assay [2] is reported as “further increase”. The PDGF gene expression result in assay [3] is reported as “unaffected”. Also, the systolic blood pressure in assay [4] (angiotensin II (58 ng/min) infused rats, tail-cuff, mean±SE, stated as no effect) was determined as 205±10 mmHg. The same compound returned a mesenteric weight in assay [4] (animals receiving angiotensin II, p<0.001, significantly reduced) of 42 mg.
